Measured values taken from BigSolDB 2.1.

Cc1nc(CCl)nc2ccccc12
solubility (mole fraction)
Conditions | in THF | in acetone | in acetonitrile | in cyclohexane | in ethanol | in ethyl acetate | in isopropanol | in n-butanol | in n-hexane | in n-propanol
281.15 K | 0.229 | 0.107 | 0.0488 | 0.0193 | 0.061 | 0.105 | 0.0429 | 0.05 | 0.00825 | 0.134
286.15 K | 0.264 | 0.142 | 0.0692 | 0.0266 | 0.0771 | 0.136 | 0.0569 | 0.063 | 0.0115 | 0.145
291.15 K | 0.297 | 0.188 | 0.096 | 0.0361 | 0.0969 | 0.173 | 0.0748 | 0.081 | 0.0146 | 0.158
296.15 K | 0.339 | 0.244 | 0.13 | 0.0484 | 0.123 | 0.217 | 0.0964 | 0.101 | 0.019 | 0.172
301.15 K | 0.374 | 0.297 | 0.174 | 0.0639 | 0.152 | 0.266 | 0.123 | 0.125 | 0.0232 | 0.186
306.15 K | 0.411 | 0.373 | 0.22 | 0.0832 | 0.183 | 0.32 | 0.156 | 0.153 | 0.0289 | 0.201
311.15 K | 0.452 | 0.449 | 0.276 | 0.107 | 0.219 | 0.378 | 0.196 | 0.186 | 0.0372 | 0.217
316.15 K | 0.492 | 0.531 | 0.34 | 0.135 | 0.257 | 0.44 | 0.245 | 0.225 | 0.0476 | 0.234
321.15 K | 0.528 | 0.603 | 0.411 | 0.168 | 0.297 | 0.503 | 0.304 | 0.27 | 0.0598 | 0.253
326.15 K | 0.563 | 0.676 | 0.488 | 0.207 | 0.337 | 0.567 | 0.394 | 0.319 | 0.0751 | 0.273
331.15 K | 0.604 | 0.74 | 0.559 | 0.249 | 0.389 | 0.63 | 0.467 | 0.361 | 0.093 | 0.294
